Data: patent publication US9023851B2 (Merck Patent GmbH, priority 2010, dated 2015)

Key:
Format in all cases: biochemical
Syk = biological target: T1, Syk (Homo sapiens, UniProt P43405); test: Syk enzyme assay (flash plate / Caliper mobility shift)
T1 construct: purchased BPS Bioscience, CA, USA
Protocol: The kinase assay is performed either as 384-well Flashplate assay (for e.g. Topcount measurement) or as 384-well Image-Flashplate assay (for LEADseeker measurement).
2.5 nM SYK, 400 nM Biotin-Aha-Aha-[…] and 10 μM ATP (spiked with 0.3 μCi 33P-ATP/well) are incubated in a total volume of 50 μl (60 mM Hepes, 10 mM MgCl2, 1.2 mM Dithiothreitol, 0.02% Brij35, 0.1% BSA, pH 7.5) with or without test compound for 1 hours at 30° C. The reaction is stopped with 25 μl 200 mM EDTA. After 30 Min at 30° C. the liquid is removed and each well washed thrice with 100 μl 0.9% sodium chloride solution. Non-specific reaction is determined in presence of 0.1 μM Staurosporine. Radioactivity is measured with Topcount (when using Flashplates) or with LEADseeker (when using Image-Flashplates) respectively. Results (e.g. IC50-values) are calculated with program tools provided by the IT-department (e.g. Symyx Assay Explorer, Genedata Screener).
(§1) Enzymatic Assays Using the Caliper LifeSciences Technology
(§2) The assays described here are performed on the Caliper Life Sciences LC3000 system This technology provides data on enzyme activity via measurement of the relative amounts of phosphorylated or unphosphorylated fluorescently labelled substrate peptide at the end of an enzymatic reaction. These different states of peptide are resolved by applying a potential difference across the sample. The presence of the charged phosphate group on the product (as opposed to the substrate) causes a different peptide mobility between the two peptides. This is visualized by excitation of the fluorescent label on the substrate and product peptides and represented as peaks within the analysis software.
(§3) In order to measure inhibitor activity of kinase inhibitors on this technology, a TTP Mosquito liquid handling instrument is used to place 0.25 ul of the appropriate concentration of inhibitor in 100% DMSO (for a dose response curve calculation) into each well of a 384-well plate. To this reaction components are added to a final volume of 25 ul. The table below indicates the sequences and concentrations for the assays described in this report. Standard components are 1 mM DTT (Sigma, D0632), 1 mM MgCl2 (Sigma, M1028), 100 mM HEPES pH 7.5 (Calbiochem, 391338), 0.015% Brij-35 (Sigma, B4184).
(§4) The reaction is incubated for 90 min at 25 C, and then stopped by the addition of 70 ul of Stop buffer (100 mM HEPES pH 7.5, 0.015% Brij-35, 10 mM EDTA (Sigma, E7889)).
(§5) The plate is read on a Caliper LC 3000 in an Off-Chip mobility shift assay format, on a 12-sipper chip. Unphosphorylated substrate and phosphorylated product peptide resolve as separate peaks allowing direct measurement of percentage of conversion of substrate to product. The percent conversion can be plotted against concentration of inhibitor to produce a sigmoidal dose response curve, from which an IC50 can be calculated using GeneData Condoseo or a similar product. Cellular activity assays

KDR = biological target: T2, KDR (Homo sapiens, UniProt P35968); test: KDR enzymatic assay (Caliper LifeSciences technology)
T2 construct: purchased BPS Bioscience, CA, USA
T2 sequence (P35968 20-1356): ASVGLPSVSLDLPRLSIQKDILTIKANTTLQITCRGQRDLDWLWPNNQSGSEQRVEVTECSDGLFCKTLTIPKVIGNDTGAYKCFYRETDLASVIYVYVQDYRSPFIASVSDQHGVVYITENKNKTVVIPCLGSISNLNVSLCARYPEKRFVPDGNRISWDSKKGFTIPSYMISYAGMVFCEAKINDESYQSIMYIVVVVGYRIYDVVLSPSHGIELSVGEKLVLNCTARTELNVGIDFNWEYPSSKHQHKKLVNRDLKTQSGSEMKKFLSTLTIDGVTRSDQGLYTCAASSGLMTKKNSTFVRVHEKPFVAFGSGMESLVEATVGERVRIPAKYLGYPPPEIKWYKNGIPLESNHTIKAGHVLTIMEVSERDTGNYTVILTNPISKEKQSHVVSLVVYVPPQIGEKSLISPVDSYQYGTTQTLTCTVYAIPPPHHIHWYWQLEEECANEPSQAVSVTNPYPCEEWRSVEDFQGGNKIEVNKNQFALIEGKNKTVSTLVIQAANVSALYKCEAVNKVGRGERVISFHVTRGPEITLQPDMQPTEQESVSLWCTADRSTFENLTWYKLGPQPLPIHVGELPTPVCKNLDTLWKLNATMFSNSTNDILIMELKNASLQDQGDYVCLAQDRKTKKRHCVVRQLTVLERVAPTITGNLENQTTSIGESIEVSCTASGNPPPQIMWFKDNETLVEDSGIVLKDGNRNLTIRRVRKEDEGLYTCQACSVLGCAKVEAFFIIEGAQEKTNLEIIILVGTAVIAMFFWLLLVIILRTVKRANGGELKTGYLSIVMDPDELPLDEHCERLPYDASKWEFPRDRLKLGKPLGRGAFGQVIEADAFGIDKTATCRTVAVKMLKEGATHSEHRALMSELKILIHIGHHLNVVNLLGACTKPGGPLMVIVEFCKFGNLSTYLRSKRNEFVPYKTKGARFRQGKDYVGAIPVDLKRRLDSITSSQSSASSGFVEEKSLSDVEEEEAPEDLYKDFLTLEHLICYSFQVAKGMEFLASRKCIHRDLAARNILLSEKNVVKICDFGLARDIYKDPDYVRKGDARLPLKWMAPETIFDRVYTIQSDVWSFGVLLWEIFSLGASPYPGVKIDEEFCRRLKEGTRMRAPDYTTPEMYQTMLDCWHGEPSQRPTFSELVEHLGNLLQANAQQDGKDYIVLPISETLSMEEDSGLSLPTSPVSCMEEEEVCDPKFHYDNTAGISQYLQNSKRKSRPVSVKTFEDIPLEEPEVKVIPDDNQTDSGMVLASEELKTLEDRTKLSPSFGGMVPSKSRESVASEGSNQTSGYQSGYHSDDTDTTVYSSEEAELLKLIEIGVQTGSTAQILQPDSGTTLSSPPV
Protocol: as §1, §2, §3, §4, §5

ZAP-70 = biological target: T3, ZAP-70 (Homo sapiens, UniProt P43403); test: Zap70 enzymatic assay (Caliper LifeSciences technology)
T3 construct: purchased BPS Bioscience, CA, USA
T3 sequence (P43403 1-619): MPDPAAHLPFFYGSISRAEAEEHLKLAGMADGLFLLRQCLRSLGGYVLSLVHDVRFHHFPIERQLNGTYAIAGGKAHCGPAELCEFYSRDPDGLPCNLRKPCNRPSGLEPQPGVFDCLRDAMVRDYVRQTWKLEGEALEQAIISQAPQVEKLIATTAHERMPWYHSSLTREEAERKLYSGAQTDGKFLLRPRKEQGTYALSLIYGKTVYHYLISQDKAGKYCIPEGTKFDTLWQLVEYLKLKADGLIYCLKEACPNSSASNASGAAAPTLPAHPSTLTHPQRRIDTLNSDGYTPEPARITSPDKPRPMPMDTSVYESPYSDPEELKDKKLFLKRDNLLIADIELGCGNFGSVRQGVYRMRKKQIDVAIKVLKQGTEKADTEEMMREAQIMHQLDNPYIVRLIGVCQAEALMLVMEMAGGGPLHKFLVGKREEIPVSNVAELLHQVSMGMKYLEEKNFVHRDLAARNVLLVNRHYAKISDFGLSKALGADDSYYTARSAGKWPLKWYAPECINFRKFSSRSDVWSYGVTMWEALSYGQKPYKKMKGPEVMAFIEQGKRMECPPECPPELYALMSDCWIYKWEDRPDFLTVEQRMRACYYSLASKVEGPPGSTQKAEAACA
Protocol: as §1, §2, §3, §4, §5

SMILES | IC50 (Syk) | IC50 (KDR) | IC50 (ZAP-70)
O=C1Nc2cc(Nc3nc4c(Cl)nccn4n3)ccc2OC1(F)F [Example B7, 6-(8-Chloro-[1,2,4]triazolo[1,5-a]pyrazin-2-ylamino)-2,2-difluoro-4H-benzo[1,4]oxazin-3-one] | 0.3 to 3 µM | – | –
Clc1nccn2nc(Nc3ccc4cnn(Cc5ccccc5)c4c3)nc12 [Example B9, (1-Benzyl-1H-indazol-6-yl)-(8-chloro-[1,2,4]triazolo[1,5-a]pyrazin-2-yl)-amine] | 3 to 50 µM | – | –
Cc1cc(C)cc(Nc2nc3c(-c4ccccc4)nccn3n2)c1 [Example C7, (3,5-Dimethyl-phenyl)-(8-phenyl-[1,2,4]triazolo[1,5-a]pyrazin-2-yl)-amine] | 0.3 to 3 µM | – | –
FC(F)(F)c1cccc(Nc2nc3c(-c4ccccc4)nccn3n2)c1 [Example C9, (8-Phenyl-[1,2,4]triazolo[1,5-a]pyrazin-2-yl)-(3-trifluoromethyl-phenyl)-amine] | 0.3 to 3 µM | 3 to 50 µM | –
c1ccc(Nc2nc3c(-c4ccccc4)nccn3n2)cc1 [Example C10, Phenyl-(8-phenyl-[1,2,4]triazolo[1,5-a]pyrazin-2-yl)-amine] | 0.3 to 3 µM | 0.3 to 3 µM | –
FC(F)(F)c1cccc(Nc2nc3c(-c4ccc(N5CCOCC5)cc4)nccn3n2)c1 [Example C12, [8-(4-Morpholin-4-yl-phenyl)-[1,2,4]triazolo[1,5-a]pyrazin-2-yl]-(3-trifluoromethyl-phenyl)-amine] | 3 to 50 µM | – | –
COc1cc(OC)cc(-c2nccn3nc(Nc4cc(C)cc(C)c4)nc23)c1 [Example C15, [8-(3,5-Dimethoxy-phenyl)-[1,2,4]triazolo[1,5-a]pyrazin-2-yl]-(3,5-dimethyl-phenyl)-amine] | 0.3 to 3 µM | 3 to 50 µM | –
COc1cc(Nc2nc3c(-c4cc(OC)cc(OC)c4)nccn3n2)cc(OC)c1 [Example C16, (3,5-Dimethoxy-phenyl)-[8-(3,5-dimethoxy-phenyl)-[1,2,4]triazolo[1,5-a]pyrazin-2-yl]-amine] | < 0.3 µM | – | –
COc1cc(OC)cc(-c2nccn3nc(Nc4cccc(C)c4)nc23)c1 [Example C17, [8-(3,5-Dimethoxy-phenyl)-[1,2,4]triazolo[1,5-a]pyrazin-2-yl]-m-tolyl-amine] | 0.3 to 3 µM | 3 to 50 µM | –
COCCCNc1nccn2nc(Nc3cc(C)cc(C)c3)nc12 [Example C37, N^2-(3,5-Dimethyl-phenyl)-N^8-(3-methoxy-propyl)-[1,2,4]triazolo[1,5-a]pyrazine-2,8-diamine] | 3 to 50 µM | 3 to 50 µM | –
Cc1cccc(Nc2nc3c(NCCN)nccn3n2)c1 [Example C45, N^8-(2-Amino-ethyl)-N^2-m-tolyl-[1,2,4]triazolo[1,5-a]pyrazine-2,8-diamine] | 3 to 50 µM | 3 to 50 µM | –
NCCNc1nccn2nc(Nc3ccccc3)nc12 [Example C49, N^8-(2-Amino-ethyl)-N^2-phenyl-[1,2,4]triazolo[1,5-a]pyrazine-2,8-diamine] | 3 to 50 µM | 3 to 50 µM | –
COCCCNc1nccn2nc(Nc3ccccc3)nc12 [Example C53, N^8-(3-Methoxy-propyl)-N^2-phenyl-[1,2,4]triazolo[1,5-a]pyrazine-2,8-diamine] | 3 to 50 µM | 3 to 50 µM | –
COc1cc(Nc2nc3c(NC4CCCCC4N)nccn3n2)cc(OC)c1 (centres unmarked) [Example C54, N^8-(2-Amino-cyclohexyl)-N^2-(3,5-dimethoxy-phenyl)-[1,2,4]triazolo[1,5-a]pyrazine-2,8-diamine] | 3 to 50 µM | – | –
Cc1cc(C)cc(Nc2nc3c(NC4CCCCC4N)nccn3n2)c1 (centres unmarked) [Example C56, N^8-(2-Amino-cyclohexyl)-N^2-(3,5-dimethyl-phenyl)-[1,2,4]triazolo[1,5-a]pyrazine-2,8-diamine] | 3 to 50 µM | 3 to 50 µM | –
Cc1cccc(Nc2nc3c(NC4CCCCC4N)nccn3n2)c1 (centres unmarked) [Example C57, N^8-(2-Amino-cyclohexyl)-N^2-m-tolyl-[1,2,4]triazolo[1,5-a]pyrazine-2,8-diamine] | 3 to 50 µM | 3 to 50 µM | –
Cc1cc(C)cc(Nc2nc3c(Nc4ccc5c(n4)NC(=O)C(C)(C)O5)nccn3n2)c1 [Example C60, 6-[2-(3,5-Dimethyl-phenylamino)-[1,2,4]triazolo[1,5-a]pyrazin-8-ylamino]-2,2-dimethyl-4H-pyrido[3,2-b][1,4]oxazin-3-one] | – | – | 3 to 50 µM
Cn1ccnc1Sc1ccc(Nc2nccn3nc(Nc4cccc(C(F)(F)F)c4)nc23)cc1Cl [Example C68, N^8-[3-Chloro-4-(1-methyl-1H-imidazol-2-ylsulfanyl)-phenyl]-N^2-(3-trifluoromethyl-phenyl)-[1,2,4]triazolo[1,5-a]pyrazine-2,8-diamine] | 3 to 50 µM | – | –
Cc1cccc(Nc2nc3c(Nc4ccc5c(c4)NC(=O)C(F)(F)O5)nccn3n2)c1 [Example C71, 2,2-Difluoro-6-(2-m-tolylamino-[1,2,4]triazolo[1,5-a]pyrazin-8-ylamino)-4H-benzo[1,4]oxazin-3-one] | 3 to 50 µM | – | –
Cc1cccc(Nc2nc3c(Nc4cccc(C(F)(F)F)c4)nccn3n2)c1 [Example C73, N^2-m-Tolyl-N^8-(3-trifluoromethyl-phenyl)-[1,2,4]triazolo[1,5-a]pyrazine-2,8-diamine] | 3 to 50 µM | – | –
c1ccc(Cn2ncc3ccc(Nc4nccn5nc(Nc6ccccc6)nc45)cc32)cc1 [Example C75, N^8-(1-Benzyl-1H-indazol-6-yl)-N^2-phenyl-[1,2,4]triazolo[1,5-a]pyrazine-2,8-diamine] | – | – | 3 to 50 µM
COc1cc(Nc2nccn3nc(Nc4ccc5cnn(Cc6ccccc6)c5c4)nc23)cc(OC)c1 [Example C82, N^2-(1-Benzyl-1H-indazol-6-yl)-N^8-(3,5-dimethoxy-phenyl)-[1,2,4]triazolo[1,5-a]pyrazine-2,8-diamine] | – | – | 3 to 50 µM
Cc1cccc(Nc2nccn3nc(Nc4ccc5cnn(Cc6ccccc6)c5c4)nc23)c1 [Example C84, N^2-(1-Benzyl-1H-indazol-6-yl)-N^8-m-tolyl-[1,2,4]triazolo[1,5-a]pyrazine-2,8-diamine] | – | – | 3 to 50 µM
COc1ccc(Nc2nc3c(-c4cccc(CN)c4)nccn3n2)cn1 [Example C254, [8-(3-Aminomethyl-phenyl)-[1,2,4]triazolo[1,5-a]pyrazin-2-yl]-(6-methoxy-pyridin-3-yl)-amine] | 0.3 to 3 µM | – | –
COc1cc(Nc2nc3c(-c4cnc5ccccc5c4)nccn3n2)cc(OC)c1 [Example C260, (3,5-Dimethoxy-phenyl)-(8-quinolin-3-yl-[1,2,4]triazolo[1,5-a]pyrazin-2-yl)-amine] | < 0.3 µM | – | –
COc1ccc(Nc2nc3c(-c4cnc5ccccc5c4)nccn3n2)cn1 [Example C262, (6-Methoxy-pyridin-3-yl)-(8-quinolin-3-yl-[1,2,4]triazolo[1,5-a]pyrazin-2-yl)-amine] | 0.3 to 3 µM | – | –
COc1ccc(Nc2nc3c(-c4cccc(NS(C)(=O)=O)c4)nccn3n2)cn1 [Example C274, N-{3-[2-(6-Methoxy-pyridin-3-ylamino)-[1,2,4]triazolo[1,5-a]pyrazin-8-yl]-phenyl}-methanesulfonamide] | 0.3 to 3 µM | – | –
Cc1c(N)cccc1-c1nccn2nc(Nc3ccc(N4CCOCC4)cc3)nc12 [Example C293, [8-(3-Amino-2-methyl-phenyl)-[1,2,4]triazolo[1,5-a]pyrazin-2-yl]-(4-morpholin-4-yl-phenyl)-amine] | 0.3 to 3 µM | – | –
